Measured values published in patent US8158776B2, “P2Y6 receptor agonists for treating lung diseases” (Inspire Pharmaceuticals, Inc., priority 2005, dated 2012).

Experiments:
Type in all cases: cell-based
P2Y2 = molecular target: T1, P2Y2 (Homo sapiens, UniProt P41231); assay: Intracellular calcium mobilization (FLIPR, Fluo-3 AM) in 1321N1 cells expressing P2Y2; details: 1321N1 cells expressing P2Y2, intracellular calcium
T1 construct: expressed in transfected cells; host or cells: human astrocytoma 1321N1 cells
T1 sequence (P41231 whole entry, species assumed): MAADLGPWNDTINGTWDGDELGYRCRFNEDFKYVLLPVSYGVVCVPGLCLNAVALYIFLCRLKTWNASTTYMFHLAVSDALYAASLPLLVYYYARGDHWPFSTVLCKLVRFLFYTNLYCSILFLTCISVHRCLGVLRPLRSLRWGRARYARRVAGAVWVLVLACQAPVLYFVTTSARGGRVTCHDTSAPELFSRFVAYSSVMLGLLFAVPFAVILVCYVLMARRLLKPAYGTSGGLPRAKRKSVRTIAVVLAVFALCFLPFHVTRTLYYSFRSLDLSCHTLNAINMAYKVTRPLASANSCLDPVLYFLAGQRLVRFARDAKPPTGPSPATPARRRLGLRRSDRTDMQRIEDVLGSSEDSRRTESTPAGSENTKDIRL
Description: (§1) Human astrocytoma (1321N1) cells expressing P2Y1, P2Y2, P2Y4, and P2Y6 were grown to confluency in 96-well plates. Cells were loaded with a solution of Fluo-3 AM (2.5 μM final concentration) in an assay buffer consisting of 10 mM KCl, 118 mM NaCl, 2.5 mM CaCl2, 1 mM MgCl2, 20 mM HEPES, 10 mM glucose, pH 7.4. After a 60-minute incubation with Fluo-3 AM at 25° C., cells were washed and stimulated with serially diluted concentrations of compounds uridine 5′-diphosphate (UDP), P^1, P^3-(diuridine 5′-)triphosphate (UP3U) or P^1-(2′,3′-benzylacetal uridine 5′-)P^3-(uridine 5′-)triphosphate (mono-benzylacetal UP3U). Intracellular calcium levels were monitored in each well simultaneously by measuring the changes in fluorescence intensity using the FLIPR (Molecular Devices Corp., Sunnyvale, Calif.). Values for compounds UDP, UP3U, and mono-benzylacetal UP3U in Table 1 are presented as EC50 values corresponding to the concentration of an agonist that produces 50% of the maximum possible response.

P2Y6 = molecular target: T2, P2Y6 (Homo sapiens, UniProt Q15077); assay: Intracellular calcium mobilization (FLIPR, Fluo-3 AM) in 1321N1 cells expressing P2Y6; details: 1321N1 cells expressing P2Y6, intracellular calcium
T2 construct: expressed in transfected cells; host or cells: human astrocytoma 1321N1 cells
T2 sequence (Q15077 whole entry, species assumed): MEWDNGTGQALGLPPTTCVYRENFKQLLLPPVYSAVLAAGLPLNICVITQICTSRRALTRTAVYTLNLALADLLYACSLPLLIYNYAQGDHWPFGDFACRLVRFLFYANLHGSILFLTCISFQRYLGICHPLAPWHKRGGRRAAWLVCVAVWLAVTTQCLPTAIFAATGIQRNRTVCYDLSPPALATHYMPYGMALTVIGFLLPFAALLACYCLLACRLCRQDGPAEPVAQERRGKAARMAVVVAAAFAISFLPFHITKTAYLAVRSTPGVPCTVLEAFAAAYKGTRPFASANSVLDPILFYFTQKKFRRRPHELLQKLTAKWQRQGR
Description: as §1

P2Y1 = molecular target: T3, P2Y1 (Homo sapiens, UniProt P47900); assay: Intracellular calcium mobilization (FLIPR, Fluo-3 AM) in 1321N1 cells expressing P2Y1; details: 1321N1 cells expressing P2Y1, intracellular calcium
T3 construct: expressed in transfected cells; host or cells: human astrocytoma 1321N1 cells
T3 sequence (P47900 whole entry, species assumed): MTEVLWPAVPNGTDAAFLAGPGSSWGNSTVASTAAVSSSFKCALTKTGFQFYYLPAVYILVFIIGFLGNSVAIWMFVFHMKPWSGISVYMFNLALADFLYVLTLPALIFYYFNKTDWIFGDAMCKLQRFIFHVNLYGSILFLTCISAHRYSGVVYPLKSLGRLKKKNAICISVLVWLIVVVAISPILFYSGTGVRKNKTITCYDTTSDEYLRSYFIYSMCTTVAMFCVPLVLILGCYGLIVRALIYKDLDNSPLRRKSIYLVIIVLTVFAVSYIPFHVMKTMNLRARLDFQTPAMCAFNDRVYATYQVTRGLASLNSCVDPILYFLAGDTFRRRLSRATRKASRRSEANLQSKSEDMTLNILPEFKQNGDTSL
Description: as §1

P2Y4 = molecular target: T4, P2Y4 (Homo sapiens, UniProt P51582); assay: Intracellular calcium mobilization (FLIPR, Fluo-3 AM) in 1321N1 cells expressing P2Y4; details: 1321N1 cells expressing P2Y4, intracellular calcium
T4 construct: expressed in transfected cells; host or cells: human astrocytoma 1321N1 cells
T4 sequence (P51582 whole entry, species assumed): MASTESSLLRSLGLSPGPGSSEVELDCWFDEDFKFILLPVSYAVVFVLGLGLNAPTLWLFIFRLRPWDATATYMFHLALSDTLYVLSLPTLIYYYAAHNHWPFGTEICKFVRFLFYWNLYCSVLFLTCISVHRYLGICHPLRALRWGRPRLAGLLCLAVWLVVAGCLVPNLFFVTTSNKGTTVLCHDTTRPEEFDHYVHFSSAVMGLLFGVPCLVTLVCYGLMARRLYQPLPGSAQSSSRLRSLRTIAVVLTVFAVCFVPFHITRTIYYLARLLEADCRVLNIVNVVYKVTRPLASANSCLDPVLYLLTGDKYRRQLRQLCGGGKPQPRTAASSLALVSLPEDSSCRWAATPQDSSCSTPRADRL
Description: as §1

SMILES | EC50 (P2Y2) [µM] | EC50 (P2Y6) [µM] | EC50 (P2Y1) [µM] | EC50 (P2Y4) [µM]
O=c1ccn([C@@H]2O[C@H](COP(=O)(O)OP(=O)(O)OP(=O)(O)OC[C@H]3O[C@@H](n4ccc(=O)[nH]c4=O)[C@H](O)[C@@H]3O)[C@@H](O)[C@H]2O)c(=O)[nH]1 [UP3U, P^1, P^3-(diuridine 5′-)triphosphate] | 13 | 0.92 | > 100 | > 100
O=c1ccn([C@@H]2O[C@H](COP(=O)(O)OP(=O)(O)OP(=O)(O)OC[C@@H]3O[C@H](n4ccc(=O)[nH]c4=O)C4OC(Cc5ccccc5)OC43)C(O)C2O)c(=O)[nH]1 (stereo partly drawn) [mono-benzylacetal UP3U, P^1-(2′,3′-benzylacetaluridine 5′-)P^3-(uridine 5′-)triphosphate] | > 100 | 0.14 | > 100 | > 100
O=c1ccn([C@@H]2O[C@H](COP(=O)(O)OP(=O)(O)O)[C@@H](O)[C@H]2O)c(=O)[nH]1 [UDP, uridine 5′-diphosphate] | 4.2 | 0.5 | > 100 | 9.48
